ChEMBL document CHEMBL4819148, “Anti-protozoal and anti-fungal evaluation of 3,5-disubstituted 1,2-dioxolanes” (Bioorg Med Chem Lett, 2021)
≈ marks a conversion by molar mass, not a printed value.

Key:
Plasmodium falciparum [1] = test: Antimalarial activity against Plasmodium falciparum; type: functional, organism-based
Candida albicans [2] = test: Antifungal activity against wild type Candida albicans; type: functional
[3] = Selectivity index, ratio of CC50 for cytotoxicity against HUVEC cells to IC50 for antiplasmodial activity against Plasmodium falciparum 3D7; type: toxicity, cell-based; details: human, read-out: Ratio CC50/IC50
Aspergillus fumigatus = test: Antifungal activity against Aspergillus fumigatus ASFU76 assessed as reduction in fungal growth after; type: functional, organism-based
[4] = Cytotoxicity against HUVEC cells assessed as reduction in cell viability; type: cell-based; details: human
[5] = Selectivity index, ratio of CC50 for cytotoxicity against HUVEC cells to IC50 for antileishmanial activity against axenic amastigote form of Leishmania donovani LV9; type: toxicity, cell-based; details: human, read-out: Ratio CC50/IC50
Plasmodium falciparum [6] = test: Antimalarial activity against Plasmodium falciparum 3D7 assessed as inhibition of parasite growth; type: functional, organism-based
Leishmania donovani [7] = test: Antileishmanial activity against axenic amastigote form of Leishmania donovani LV9 assessed as reduction in parasite growth; type: functional, organism-based
Candida albicans [8] = test: Antifungal activity against Candida albicans CAAL93 assessed as reduction in fungal growth; type: functional, organism-based
Leishmania donovani [9] = test: Antileishmanial activity against intramacrophage form of Leishmania donovani LV9 assessed as reduction in parasite growth; type: functional, organism-based

SMILES	EC50 (Plasmodium falciparum [1]) [µM]	MIC (Candida albicans [2]) [µM]	selectivity ratio [3]	IC50 (Aspergillus fumigatus) [µM]	CC50 [4] [µM]	selectivity ratio [5]	IC50 (Plasmodium falciparum [6]) [µM]	IC50 (Leishmania donovani [7]) [µM]	IC50 (Candida albicans [8]) [µM]	IC50 (Leishmania donovani [9]) [µM]
C=C/C=C/C=C\C=C\C=C\C=C/C=C\C[C@H]1C[C@@H](CC(=O)O)OO1	0.052	0.61 (≈ 0.2 µg/mL)								
CCCCCCC1CCOO1 (configuration not stated)			< 10.6	> 100	10.6	0.2	> 1	49.8	> 100	
CCCCCCCCCCCCCCC[C@H]1C[C@@H](CC(=O)O)OO1				> 100			> 1	6.16	> 100	
CC(=O)OC1CC(CCO[Si](c2ccccc2)(c2ccccc2)C(C)(C)C)OO1 (mixture of isomers)				> 100			> 1	> 100	> 100	
C=CCC1CC(CCCCCC)OO1 (mixture of isomers)			7	> 100	0.7	< 0.01	0.1	> 100	25.2	
CCCCCCCCCCCCCCC[C@H]1C[C@@H](CCO)OO1 (mixture of isomers)				> 100			> 1	5.57	> 100	
CCCCCCC1CC(OC(C)=O)OO1 (mixture of isomers)			< 57	> 100	57.8	0.82	> 1	70.7	> 100	> 100
CCCCCCC1CC(C/C=C\Cl)OO1 (mixture of isomers)			40	> 100	6.13	4.09	0.15	1.5	33.4	28.4
CCCCCCC1CC(O)OO1 (mixture of isomers)			< 71	> 100	71.7	< 0.72	> 1	> 100	> 100	> 100
C=C(C)CC1CC(CCCCCC)OO1 (mixture of isomers)			68	35.7	11.7	1.71	0.17	6.82	35.7	> 100
CC(=O)OC1CC(C2CCCCC2)OO1 (mixture of isomers)				> 100			> 1	56.6	> 100	
CC(C)C1CC(O)OO1 (mixture of isomers)			234	> 100	28.2	< 0.28	0.12	> 100	> 100	> 100
CCCCCCC1CC(C/C=C\Br)OO1 (mixture of isomers)			< 2	> 100	2.29	1.48	> 1	1.55	> 100	33.6
CCCCCCC1CC(C#N)OO1 (mixture of isomers)			< 10	> 100	10.9	0.26	> 1	42.9	> 100	> 100
CC(C)(C)C1CC(O)OO1 (mixture of isomers)			35	> 100	12.2	< 0.12	0.34	> 100	> 100	> 100
CCCCCCC1CC(CC(=O)SCC)OO1 (mixture of isomers)			7	> 100	1.89	1.01	0.25	1.88	> 100	38.9
C=CCC1CC(CCO[Si](c2ccccc2)(c2ccccc2)C(C)(C)C)OO1 (mixture of isomers)				> 100			> 1	> 100	> 100	
CC(=O)OC1CC(C(C)(C)C)OO1 (mixture of isomers)			628	> 100	12.6	< 0.13	0.02	> 100	> 100	44.3
CCCCCCC1CC(CC(=O)c2ccccc2)OO1 (mixture of isomers)			24	> 100	9.02	< 0.09	0.37	> 100	> 100	
CCCCCCC1CC(CC(=O)Sc2ccccc2)OO1 (mixture of isomers)			< 1.8	> 100	1.82	0.83	> 1	2.2	> 100	> 100
CC(=O)OC1CC(C(C)C)OO1 (mixture of isomers)				> 100	59.3	< 0.59	0.1	> 100	> 100	32.9
C=CCC1CC(C2CCCCC2)OO1 (mixture of isomers)				> 100			> 1	6.78	> 100	
CCCCCCC1CC(CC(=O)C(C)(C)C)OO1 (mixture of isomers)			< 6	> 100	6.09	1.38	> 1	4.42	> 100	> 100
C[C@@H]1[C@H](O)[C@@H](C)/C=C/C=C/C=C/C=C/C=C/C=C/C=C/[C@H](O[C@@H]2O[C@H](C)[C@@H](O)[C@H](N)[C@@H]2O)C[C@@H]2O[C@](O)(C[C@@H](O)C[C@@H](O)[C@H](O)CC[C@@H](O)C[C@@H](O)CC(=O)O[C@H]1C)C[C@H](O)[C@H]2C(=O)O [AMPHOTERICIN B]				0.33						
CCN(CC)CCCC(C)Nc1ccnc2cc(Cl)ccc12 (configuration not stated) [CHLOROQUINE]					31.5					
OC(Cn1cncn1)(Cn1cncn1)c1ccc(F)cc1F [FLUCONAZOLE]									0.3	
CCCCCCCCCCCCCCCCOP(=O)([O-])OCC[N+](C)(C)C [MILTEFOSINE]					54.3	32		1.7		0.61
